# From patent US8586505B2 (SDS Biotech K. K., priority 2009, dated 2013)
# What was measured:
# Format in all cases: in vivo
# [1] = test system: Phytophthora infestans; assay: whole plant or invertebrate; details: in Solanum lycopersicum, 96 h, read-out: Determination of control effect (preventive value)
# [2] = test system: Pseudoperonospora cubensis; assay: Test of examining control effect on Pseudoperonospora cubensis (potted cucumber plants); details: 96 h, 10% wettable powder adjusted to 125 ppm, 15 ml/pot sprayed on potted cucumber plants one day before spray inoculation, assessed after 1 day wet chamber and 3 days greenhouse, read-out: Determination of control effect (preventive value) on Pseudoperonospora cubensis
# In short: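 Cucumber plants (Sagamihanjiro, 2.5-leaf stage) sprayed with 125 ppm compound solution from 10% wettable powder, 15 ml/pot. One day later, spray-inoculated with P. cubensis conidia (1.0×10^4 cells/ml), kept 1 day at 21° C wet, then 3 days in greenhouse. Preventive value derived from lesion area relative to untreated plants.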
# [3] = test system: Sphaerotheca fuliginea; assay: Test of examining control effect on Sphaerotheca fuliginea (potted cucumber plants); details: Podosphaera fuliginea, 336 h; 10% wettable powder adjusted to 125 ppm, 15 ml/pot sprayed on potted cucumber plants one day before spray inoculation; assessed after 14 days in greenhouse; read-out: Determination of control effect (preventive value) on Sphaerotheca fuliginea
# In short: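 Cucumber plants (Sagamihanjiro, 2nd leaf stage) sprayed with 125 ppm compound (from 10% wettable powder), inoculated one day later with S. fuliginea conidia (1.0×10^5 cells/ml); lesion area scored after 14 days in greenhouse. Preventive value vs untreated; ≥60% high, <60% low control.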
Structure (SMILES),pest or weed control at 125 ppm [1],pest or weed control at 125 µg/mL [2],pest or weed control at 125 µg/mL [3]
Cc1ccc(C#CCCNc2ncnc3ccccc23)c(C)c1 [compound 180],60 to 100%,60 to 100%,60 to 100%
O=[N+]([O-])c1c(Cl)ncnc1NCCC#Cc1ccccc1C(F)(F)F [compound 370],0 to 60%,0 to 60%,0 to 60%
CC(C)(C)C#CCCNc1ncnc2sccc12 [compound 8],60 to 100%,60 to 100%,60 to 100%
C/C(C#N)=C/C#CCCNc1ncnc2ccccc12 [compound 93],60 to 100%,60 to 100%,60 to 100%
CC(CC#Cc1ccc(Cl)cc1C(F)(F)F)Nc1ncnc2c(Cl)cccc12 (stereo not drawn) [compound 349],0 to 60%,60 to 100%,60 to 100%
FC(F)(F)c1ccccc1C#CCCNc1ncnc2cc3ccccc3cc12 [compound 342],0 to 60%,60 to 100%,0 to 60%
C#CCCNc1ncnc2ccccc12 [compound 86],0 to 60%,60 to 100%,60 to 100%
C(#Cc1cccc2ncccc12)CCNc1ncnc2ccccc12 [compound 191],0 to 60%,60 to 100%,0 to 60%
COCc1cc(C)ccc1C#CCCNc1ncnc(C)c1Cl [compound 361],60 to 100%,60 to 100%,60 to 100%
CC(CC#Cc1ccc(Cl)cc1C(F)(F)F)Nc1ncnc2cc(F)ccc12 (stereo not drawn) [compound 344],0 to 60%,60 to 100%,60 to 100%
COCc1ccccc1C#CCCNc1ncnc2ccc(-c3ccccc3)cc12 [compound 333],0 to 60%,60 to 100%,0 to 60%
OCCc1ccccc1C#CCCNc1ncnc2ccccc12 [compound 158],0 to 60%,60 to 100%,60 to 100%
FC(F)c1ccccc1C#CCCNc1ncnc2ccccc12 [compound 100],60 to 100%,60 to 100%,60 to 100%
COCc1ccccc1C#CCCNc1ncnc2ccc(C)cc12 [compound 326],0 to 60%,60 to 100%,60 to 100%
CCC(CC#Cc1ccc(F)cc1C(F)(F)F)Nc1ncnc2ccccc12 (stereo not drawn) [compound 295],0 to 60%,60 to 100%,60 to 100%
COCc1ccccc1C#CCCNc1ncnc2ccc(-c3cccnc3)cc12 [compound 337],0 to 60%,60 to 100%,0 to 60%
CC(F)c1ncnc(NCCC#Cc2ccccc2)c1Br (stereo not drawn) [compound 375],60 to 100%,60 to 100%,60 to 100%
CC(CC#Cc1ccc(F)cc1C(F)(F)F)Nc1ncnc2cc(F)ccc12 (stereo not drawn) [compound 347],0 to 60%,60 to 100%,60 to 100%
CC(CC#Cc1ccc(F)cc1)Nc1ncnc2ccccc12 (stereo not drawn) [compound 271],60 to 100%,60 to 100%,60 to 100%
CC(CC#Cc1ccccc1S(C)(=O)=O)Nc1ncnc2sccc12 (stereo not drawn) [compound 237],60 to 100%,60 to 100%,60 to 100%
FCc1nc(C#CCCNc2ncnc3sccc23)cs1 [compound 68],60 to 100%,60 to 100%,60 to 100%
Clc1cc(C#CCCNc2ncnc3ccccc23)ccn1 [compound 196],0 to 60%,60 to 100%,60 to 100%
